Drawing on patent US20250263395A1, “COMPOUNDS THAT MEDIATE PROTEIN DEGRADATION AND METHODS OF USE THEREOF” (Monte Rosa Therapeutics AG, priority 2022, published 2025), this text covers Dmax and Ki for 25 compounds.

For one assay, the target named is CDK2 (Homo sapiens (Human), UniProt P24941). As to the kind of experiment: CDK2 NanoBiT assay (HiBiT-tagged CDK2 degradation). The class given is cell-based. To be noted: C-terminal HiBiT tag on CDK2, LgBiT, 24 hours. The essentials: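 HEK293 line with CRISPR knock-in C-terminal HiBiT-tagged CDK2 and stable LgBiT, preincubated 16 h with live-cell substrate, then compound-treated 24 h at 37° C, 5% CO2 (30 μM stock). Luminescence normalized to plate negative and positive controls; EC50 from 3-parameter logistic fit, Hill slope 1.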

A further assay concerns the target CRBN-DDB1 (Homo sapiens (Human), UniProt Q96SW2). As to the kind of experiment: CRBN HTRF assay (Cy5-Thalidomide probe displacement). The class given is binding. To be noted: CRBN-DDB1 2.5 nM, Cy5-Thalidomide 100 nM, 30 min; Ki from geometric mean IC50 by Cheng-Prusoff. Summed up:
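HTRF displacement of Cy5-thalidomide probe (100 nM) from His-CRBN-DDB1 (2.5 nM) with anti-His terbium cryptate, in HEPES/NaCl/TCEP/EDTA/Tween20 buffer. 10-point 1:3 compound series, 30 min at ambient temperature; signal normalised to DMSO and lenalidomide controls, IC50 fitted and Ki derived by Cheng-Prusoff.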
In general terms: TR-FRET usually uses a lanthanide donor and a delayed reading to cut background.

SMILES strings stand for the structures.

For orientation: Dmax means the greatest extent of degradation seen. The low end stands for a partial loss of target, the high end for a fuller loss of target. One may read the Ki as a measure of affinity in units of concentration, obtained from inhibition or displacement. The low end stands for tighter binding, the high end for weaker binding.

Chain of CRBN-DDB1 (Q96SW2 whole entry): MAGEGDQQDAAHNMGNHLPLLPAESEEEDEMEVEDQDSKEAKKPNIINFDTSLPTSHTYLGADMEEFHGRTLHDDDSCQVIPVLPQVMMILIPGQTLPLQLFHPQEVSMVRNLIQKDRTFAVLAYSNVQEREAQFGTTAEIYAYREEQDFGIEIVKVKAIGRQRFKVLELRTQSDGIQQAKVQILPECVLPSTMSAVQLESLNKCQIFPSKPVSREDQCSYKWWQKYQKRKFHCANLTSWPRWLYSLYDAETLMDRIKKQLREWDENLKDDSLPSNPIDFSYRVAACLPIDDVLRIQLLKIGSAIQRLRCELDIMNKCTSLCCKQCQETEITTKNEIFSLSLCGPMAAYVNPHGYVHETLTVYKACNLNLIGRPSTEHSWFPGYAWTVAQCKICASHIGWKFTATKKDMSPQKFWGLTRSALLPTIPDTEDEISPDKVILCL
Chain of CRBN-DDB1 (Q16531 whole entry partner): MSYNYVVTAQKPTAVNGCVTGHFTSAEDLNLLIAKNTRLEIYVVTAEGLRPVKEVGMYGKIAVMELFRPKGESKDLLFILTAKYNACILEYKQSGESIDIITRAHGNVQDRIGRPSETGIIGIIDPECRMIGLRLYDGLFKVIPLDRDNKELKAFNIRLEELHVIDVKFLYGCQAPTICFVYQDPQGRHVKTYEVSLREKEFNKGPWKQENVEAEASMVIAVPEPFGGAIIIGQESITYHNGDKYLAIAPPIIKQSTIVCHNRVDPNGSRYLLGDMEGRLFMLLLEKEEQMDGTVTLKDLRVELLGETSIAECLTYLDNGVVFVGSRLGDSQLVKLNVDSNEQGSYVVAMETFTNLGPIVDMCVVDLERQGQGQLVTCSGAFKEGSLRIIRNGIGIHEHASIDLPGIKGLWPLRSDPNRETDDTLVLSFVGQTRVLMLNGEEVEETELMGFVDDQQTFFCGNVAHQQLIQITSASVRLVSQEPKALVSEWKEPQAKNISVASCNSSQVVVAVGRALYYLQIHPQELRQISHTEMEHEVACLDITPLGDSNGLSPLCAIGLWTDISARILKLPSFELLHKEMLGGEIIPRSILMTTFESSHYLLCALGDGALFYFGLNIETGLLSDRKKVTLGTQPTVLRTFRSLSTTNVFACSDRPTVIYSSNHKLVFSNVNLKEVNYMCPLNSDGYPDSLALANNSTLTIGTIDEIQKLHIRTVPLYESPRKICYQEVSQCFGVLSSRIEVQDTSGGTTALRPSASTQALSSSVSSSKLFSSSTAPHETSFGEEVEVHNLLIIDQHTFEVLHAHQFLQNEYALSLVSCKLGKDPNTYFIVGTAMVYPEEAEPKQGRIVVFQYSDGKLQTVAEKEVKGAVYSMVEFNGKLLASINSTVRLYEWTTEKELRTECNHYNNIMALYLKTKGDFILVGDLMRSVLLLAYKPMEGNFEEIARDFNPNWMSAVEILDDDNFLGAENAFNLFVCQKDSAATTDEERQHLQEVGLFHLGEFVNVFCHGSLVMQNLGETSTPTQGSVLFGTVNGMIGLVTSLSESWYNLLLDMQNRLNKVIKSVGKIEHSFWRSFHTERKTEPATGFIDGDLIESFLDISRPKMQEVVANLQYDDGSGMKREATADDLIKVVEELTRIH

`O=C1CCC(c2c(F)cc(N3CC(NC(=O)OC4CN(C(=O)c5ccccc5)C4)C3)cc2F)C(=O)N1` (centres unmarked) [Compound 24, 1-benzoylazetidin-3-yl (1-(4-(2,6-dioxopiperidin-3-yl)-3,5-difluorophenyl)azetidin-3-yl)carbamate] yielded a Dmax at CDK2 (HEK293, HEK293 clonal line) of 10 to 50%. The Ki on CRBN-DDB1 was at most 100 nM.
With `Cc1ccc(N2CC(OC(=O)NC3CN(c4cc(F)c(C5CCC(=O)NC5=O)c(F)c4)C3)C2)nc1` (centres unmarked) [Compound 79, 1-(5-methylpyridin-2-yl)azetidin-3-yl (1-(4-(2,6-dioxopiperidin-3-yl)-3,5-difluorophenyl)azetidin-3-yl)carbamate], on CDK2 (HEK293, HEK293 clonal line), the Dmax was in the range of 50 to 80%. The same compound had a Ki at CRBN-DDB1 of at most 100 nM.
For `Cc1cc(Cl)ccc1N(C)C(=O)C12CC(OC(=O)NC3CN(c4cc(F)c(C5CCC(=O)NC5=O)c(F)c4)C3)(C1)C2` (centres unmarked) [Compound 112, 3-((4-chloro-2-methylphenyl)(methyl)carbamoyl)bicyclo[1.1.1]pentan-1-yl (1-(4-(2,6-dioxopiperidin-3-yl)-3,5-difluorophenyl)azetidin-3-yl)carbamate], on CDK2 (HEK293, HEK293 clonal line), the Dmax lay in the range of 10 to 50%. Also, the Ki at CRBN-DDB1 was at most 100 nM.
On CDK2 (HEK293, HEK293 clonal line), `O=C1CCC(c2c(F)cc(N3CC(NC(=O)OC4CN(C(=O)N5CCC56CCC6)C4)C3)cc2F)C(=O)N1` (centres unmarked) [Compound 33, 1-(1-azaspiro[3.3]heptane-1-carbonyl)azetidin-3-yl (1-(4-(2,6-dioxopiperidin-3-yl)-3,5-difluorophenyl)azetidin-3-yl)carbamate] returned a Dmax of 50 to 80%. At CRBN-DDB1, this compound yielded a Ki of at most 100 nM.
In the case of `CN(C)C(=O)N1CC[C@@H](OC(=O)NC2CN(c3cc(F)c(C4CCC(=O)NC4=O)c(F)c3)C2)C1` (stereo partly drawn) [Compound 18, (R)-1-(dimethylcarbamoyl)pyrrolidin-3-yl (1-(4-(2,6-dioxopiperidin-3-yl)-3,5-difluorophenyl)azetidin-3-yl)carbamate], the Dmax at CDK2 (HEK293, HEK293 clonal line) fell in the range of 10 to 50%. The compound also came in with a Ki at CRBN-DDB1 of at most 100 nM.
For the compound `O=C1CCC(c2c(F)cc(N3CC(NC(=O)OC4CN(C(=O)N5CC6(CCC6)C5)C4)C3)cc2F)C(=O)N1` (centres unmarked) [Compound 31, 1-(2-azaspiro[3.3]heptane-2-carbonyl)azetidin-3-yl (1-(4-(2,6-dioxopiperidin-3-yl)-3,5-difluorophenyl)azetidin-3-yl)carbamate], the Dmax at CDK2 (HEK293, HEK293 clonal line) was in the range of 50 to 80%. On CRBN-DDB1, this compound gave a Ki of at most 100 nM.
For `O=C1CCC(c2c(F)cc(N3CC(NC(=O)OCC#CC4CC4)C3)cc2F)C(=O)N1` (centres unmarked) [Compound 84, 3-cyclopropylprop-2-yn-1-yl (1-(4-(2,6-dioxopiperidin-3-yl)-3,5-difluorophenyl)azetidin-3-yl)carbamate] the same measures were 10 to 50% and at most 100 nM.
With `O=C1CCC(c2c(F)cc(N3CC(Nc4ncn(C5CC6(CCC6)C5)n4)C3)cc2F)C(=O)N1` (centres unmarked) [Compound 105, 3-(2,6-difluoro-4-(3-((1-(spiro[3.3]heptan-2-yl)-1H-1,2,4-triazol-3-yl)amino)azetidin-1-yl)phenyl)piperidine-2,6-dione], the Dmax on CDK2 (HEK293, HEK293 clonal line) lay in the range of 50 to 80%. Further, the Ki on CRBN-DDB1 is 100 to 1000 nM.
For `Cc1cccnc1N1CC(OC(=O)NC2CN(c3cc(F)c(C4CCC(=O)NC4=O)c(F)c3)C2)C1` (centres unmarked) [Compound 29, 1-(3-methylpyridin-2-yl)azetidin-3-yl (1-(4-(2,6-dioxopiperidin-3-yl)-3,5-difluorophenyl)azetidin-3-yl)carbamate] the same measures were 50 to 80% and at most 100 nM.
For `N#Cc1ccc(-c2nnc(NC3CN(c4cc(F)c(C5CCC(=O)NC5=O)c(F)c4)C3)o2)cc1` (centres unmarked) [Compound 95, 4-(5-((1-(4-(2,6-dioxopiperidin-3-yl)-3,5-difluorophenyl)azetidin-3-yl)amino)-1,3,4-oxadiazol-2-yl)benzonitrile] the same measures were above 80% and at most 100 nM.
On CDK2 (HEK293, HEK293 clonal line), `O=C1CCC(c2c(F)cc(N3CC(NC(=O)OC4CN(C(=O)N5CCc6ccccc65)C4)C3)cc2F)C(=O)N1` (centres unmarked) [Compound 9, 1-(indoline-1-carbonyl)azetidin-3-yl (1-(4-(2,6-dioxopiperidin-3-yl)-3,5-difluorophenyl)azetidin-3-yl)carbamate] had a Dmax above 80%. At CRBN-DDB1, this compound returned a Ki of at most 100 nM.
`O=C1CCC(c2c(F)cc(N3CC(NC(=O)OC4CN(C(=O)N5Cc6ccccc6C5)C4)C3)cc2F)C(=O)N1` (centres unmarked) [Compound 5, 1-(isoindoline-2-carbonyl)azetidin-3-yl (1-(4-(2,6-dioxopiperidin-3-yl)-3,5-difluorophenyl)azetidin-3-yl)carbamate] displayed a Dmax at CDK2 (HEK293, HEK293 clonal line) of 50 to 80%. On CRBN-DDB1, this compound gave a Ki of at most 100 nM.
At CDK2 (HEK293, HEK293 clonal line), `C[C@@H]1[C@@H](Nc2nnc(-c3ccc(OC(F)(F)F)cc3)o2)CN1c1cc(F)c(C2CCC(=O)NC2=O)c(F)c1` (stereo partly drawn) [Compound 144, 3-(2,6-difluoro-4-((2R,3S)-2-methyl-3-((5-(4-(trifluoromethoxy)phenyl)-1,3,4-oxadiazol-2-yl)amino)azetidin-1-yl)phenyl)piperidine-2,6-dione] yielded a Dmax of 50 to 80%. Besides, the Ki on CRBN-DDB1 was at most 100 nM.
For `COC12CC(c3nnc(N[C@H]4CN(c5cc(F)c(C6CCC(=O)NC6=O)c(F)c5)[C@@H]4C)o3)(C1)C2` (stereo partly drawn) [Compound 139, 3-(2,6-difluoro-4-((2R,3S)-3-((5-(3-methoxybicyclo[1.1.1]pentan-1-yl)-1,3,4-oxadiazol-2-yl)amino)-2-methylazetidin-1-yl)phenyl)piperidine-2,6-dione] the same measures were 50 to 80% and 100 to 1000 nM.
Consider `O=C1CCC(c2c(F)cc(N3CC(Nc4cc(C5CC6(CCC6)C5)ccn4)C3)cc2F)C(=O)N1` (centres unmarked) [Compound 106, 3-(2,6-difluoro-4-(3-((4-(spiro[3.3]heptan-2-yl)pyridin-2-yl)amino)azetidin-1-yl)phenyl)piperidine-2,6-dione], for which, on CDK2 (HEK293, HEK293 clonal line), the Dmax was in the range of 50 to 80%. The Ki at CRBN-DDB1 is at most 100 nM.
Take `CC(C)(C)[Si](C)(C)O[C@H]1C[C@@H](OC(=O)NC2CN(c3cc(F)c(C4CCC(=O)NC4=O)c(F)c3)C2)C1` (some centres unmarked) [Compound 48]: at CDK2 (HEK293 clonal line), the Dmax is above 80%. This compound also came in with a Ki on CRBN-DDB1 of at most 100 nM.
On CDK2 (HEK293, HEK293 clonal line), `O=C1CCC(c2c(F)cc(N3CC(NC(=O)OC4CN(C(=O)C5CC5)C4)C3)cc2F)C(=O)N1` (centres unmarked) [Compound 41, 1-(cyclopropanecarbonyl)azetidin-3-yl (1-(4-(2,6-dioxopiperidin-3-yl)-3,5-difluorophenyl)azetidin-3-yl)carbamate] displayed a Dmax of 10 to 50%. At CRBN-DDB1, this compound gave a Ki of at most 100 nM.
As to `CN(C(=O)N1CCC(OC(=O)NC2CN(c3cc(F)c(C4CCC(=O)NC4=O)c(F)c3)C2)CC1)C1CC1` (centres unmarked) [Compound 88, 1-(cyclopropyl(methyl)carbamoyl)piperidin-4-yl (1-(4-(2,6-dioxopiperidin-3-yl)-3,5-difluorophenyl)azetidin-3-yl)carbamate], the Dmax at CDK2 (HEK293, HEK293 clonal line) lay in the range of 50 to 80%. The Ki on CRBN-DDB1 is at most 100 nM.
With `CC1(C)CCC(COC(=O)NC2CN(c3cc(F)c(C4CCC(=O)NC4=O)c(F)c3)C2)CC1` (centres unmarked) [Compound 53, (4,4-dimethylcyclohexyl)methyl (1-(4-(2,6-dioxopiperidin-3-yl)-3,5-difluorophenyl)azetidin-3-yl)carbamate], on CDK2 (HEK293, HEK293 clonal line), the Dmax is above 80%. In addition, the Ki on CRBN-DDB1 was at most 100 nM.
On to `CN(C(=O)C12CC(OC(=O)NC3CN(c4cc(F)c(C5CCC(=O)NC5=O)c(F)c4)C3)(C1)C2)c1cccc(C#N)c1` (centres unmarked) [Compound 123, 3-((3-cyanophenyl)(methyl)carbamoyl)bicyclo[1.1.1]pentan-1-yl (1-(4-(2,6-dioxopiperidin-3-yl)-3,5-difluorophenyl)azetidin-3-yl)carbamate], for which the Dmax on CDK2 (HEK293, HEK293 clonal line) fell in the range of 10 to 50%. The same compound showed a Ki on CRBN-DDB1 of at most 100 nM.
For `Cc1cc(N2CC(NC(=O)OC3CN(C(=O)N(C)C4CC4)C3)C2)cc(C)c1C1CCC(=O)NC1=O` (centres unmarked) [Compound 86, 1-(cyclopropyl(methyl)carbamoyl)azetidin-3-yl (1-(4-(2,6-dioxopiperidin-3-yl)-3,5-dimethylphenyl)azetidin-3-yl)carbamate] the same measures were 10 to 50% and 100 to 1000 nM.
For `COc1ccc(-c2nnc(NC3CN(c4cc(F)c(C5CCC(=O)NC5=O)c(F)c4)C3)o2)cc1` (centres unmarked) [Compound 98, 3-(2,6-difluoro-4-(3-((5-(4-methoxyphenyl)-1,3,4-oxadiazol-2-yl)amino)azetidin-1-yl)phenyl)piperidine-2,6-dione] the same measures were above 80% and at most 100 nM.
On CDK2 (HEK293, HEK293 clonal line), `CN(C(=O)N1CC(OC(=O)NC2(C(F)(F)F)CN(c3cc(F)c(C4CCC(=O)NC4=O)c(F)c3)C2)C1)C1CC1` (centres unmarked) [Compound 11, 1-(cyclopropyl(methyl)carbamoyl)azetidin-3-yl (1-(4-(2,6-dioxopiperidin-3-yl)-3,5-difluorophenyl)-3-(trifluoromethyl)azetidin-3-yl)carbamate] returned a Dmax of 50 to 80%. On CRBN-DDB1, this compound showed a Ki of at most 100 nM.
With `O=C1CCC(c2c(F)cc(N3CC[C@H](NC(=O)OCC4CC5(CCC5)C4)C3)cc2F)C(=O)N1` (stereo partly drawn) [Compound 61, spiro[3.3]heptan-2-ylmethyl ((3S)-1-(4-(2,6-dioxopiperidin-3-yl)-3,5-difluorophenyl)pyrrolidin-3-yl)carbamate], the Dmax at CDK2 (HEK293, HEK293 clonal line) is above 80%. For the same compound, on CRBN-DDB1, the Ki was in the range of 100 to 1000 nM.
For `Cc1ccc(N(C)C(=O)N2CC(OC(=O)NC3CN(c4cc(F)c(C5CCC(=O)NC5=O)c(F)c4)C3)C2)cn1` (centres unmarked) [Compound 109, 1-(methyl (6-methylpyridin-3-yl)carbamoyl) azetidin-3-yl (1-(4-(2,6-dioxopiperidin-3-yl)-3,5-difluorophenyl)azetidin-3-yl) carbamate] the same measures were 10 to 50% and at most 100 nM.
